# Experimental data taken from patent US7101878B1 (Agouron Pharmaceuticals, Inc., priority 1998, dated 2006).
# Target: T1, mouse GnRH receptor (Mus musculus, UniProt Q01776)
# T1 construct: expressed in transfected cells; host or cells: 293 cells
# T1 sequence (Q01776 1-327): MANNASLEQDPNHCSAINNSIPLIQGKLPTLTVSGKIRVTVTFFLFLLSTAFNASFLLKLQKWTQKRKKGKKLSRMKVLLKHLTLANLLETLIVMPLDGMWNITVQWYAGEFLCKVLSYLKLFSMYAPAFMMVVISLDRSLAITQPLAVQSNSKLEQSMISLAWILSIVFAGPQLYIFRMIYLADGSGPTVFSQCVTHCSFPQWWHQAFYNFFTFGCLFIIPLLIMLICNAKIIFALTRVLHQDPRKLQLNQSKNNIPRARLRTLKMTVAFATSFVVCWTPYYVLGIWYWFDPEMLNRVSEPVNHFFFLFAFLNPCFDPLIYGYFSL
# Experiment: Radioligand binding, 125I-GnRH-A, 293 cells expressing mouse GnRH receptors
# Details: 1 h, substrate remaining; 10 uM compound; closer to zero = closer to 100% inhibition; read-out: S%R 10 uM mGnRHR
# Outline: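 Bound label captured on 0.1% polyethyleneimine-treated GF/C filters, washed three times with PBS, counted. IC50 derived; identical set-up for every species.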
row,remaining activity at 10 µM [%],Compound
1,53,Cc1cc2c(cc1Cc1ccc(C(=O)NC(CCCNC(N)N)C(=O)O)o1)C(C)(C)CCC2(C)C (centres unmarked) [Compound 459]
2,-4,Cc1cc2c(cc1Cc1ccc(C(=O)NCCCN3CCOCC3)o1)C(C)(C)CCC2(C)C [Compound 460]
3,53,Cc1cc2c(cc1Cc1ccc(C(=O)NCCc3ccc(S(N)(=O)=O)cc3)o1)C(C)(C)CCC2(C)C [Compound 461]
4,0,Cc1cc2c(cc1Cc1ccc(C(=O)NCCCN(C)c3ccccc3)o1)C(C)(C)CCC2(C)C [Compound 462]
5,-5,Cc1cc2c(cc1Cc1ccc(C(=O)N3CCC(C(N)=O)CC3)o1)C(C)(C)CCC2(C)C [Compound 463]
6,7,Cc1cc2c(cc1Cc1ccc(C(=O)NCC(=O)Nc3ccc([N+](=O)[O-])cc3)o1)C(C)(C)CCC2(C)C [Compound 464]
7,32,Cc1cc2c(cc1Cc1ccc(C(=O)NCCNCCN3CCOCC3)o1)C(C)(C)CCC2(C)C [Compound 465]
8,30,Cc1cc2c(cc1Cc1ccc(C(=O)NC3CCCCC3Nc3nccc(NCC4CCCO4)n3)o1)C(C)(C)CCC2(C)C (centres unmarked) [Compound 466]
9,-1,Cc1cc2c(cc1Cc1ccc(C(=O)NCCc3ccc4c(c3)OCO4)o1)C(C)(C)CCC2(C)C [Compound 467]
10,-10,Cc1cc2c(cc1Cc1ccc(C(=O)NCCCn3ccnc3)o1)C(C)(C)CCC2(C)C [Compound 468]
11,-9,Cc1cc2c(cc1Cc1ccc(C(=O)NCCCc3ccccc3)o1)C(C)(C)CCC2(C)C [Compound 469]
12,6,Cc1cc2c(cc1Cc1ccc(C(=O)NCCc3c[nH]c4ccccc34)o1)C(C)(C)CCC2(C)C [Compound 470]
13,-4,Cc1cc2c(cc1Cc1ccc(C(=O)NCCc3cccs3)o1)C(C)(C)CCC2(C)C [Compound 471]
14,42,Cc1cc2c(cc1Cc1ccc(C(=O)NCCCNCCCCNCCCN)o1)C(C)(C)CCC2(C)C [Compound 472]
15,-14,Cc1cc2c(cc1Cc1ccc(C(=O)NC3CCCC(Nc4ccnc(NCC5CCCO5)n4)C3)o1)C(C)(C)CCC2(C)C (centres unmarked) [Compound 473]
16,39,COc1ccc(C(=O)CNC(=O)c2ccc(Cc3cc4c(cc3C)C(C)(C)CCC4(C)C)o2)cc1 [Compound 474]
17,-3,Cc1cc2c(cc1Cc1ccc(C(=O)NCCCN3CCN(C)CC3)o1)C(C)(C)CCC2(C)C [Compound 475]
18,20,CC(=O)NCCNC(=O)c1ccc(Cc2cc3c(cc2C)C(C)(C)CCC3(C)C)o1 [Compound 476]
19,47,Cc1cc2c(cc1Cc1ccc(C(=O)Nc3ccc4[nH]c(-c5ccccn5)nc4c3)o1)C(C)(C)CCC2(C)C [Compound 477]
20,3,Cc1cc2c(cc1Cc1ccc(C(=O)NCc3ccc(-c4csnn4)cc3)o1)C(C)(C)CCC2(C)C [Compound 478]
21,-3,Cc1cc2c(cc1Cc1ccc(C(=O)NCC3CCC(C(=O)O)CC3)o1)C(C)(C)CCC2(C)C (centres unmarked) [Compound 479]
22,-2,Cc1cc2c(cc1Cc1ccc(C(=O)N3CCN(c4cccc(NCC5CCCO5)n4)CC3)o1)C(C)(C)CCC2(C)C (centres unmarked) [Compound 480]

row,remaining activity at 10 µM [%],Compound
1,5,Cc1cc2c(cc1Cc1ccc(C(=O)NC3CCCCC3Nc3ccnc(NCC4CCCO4)n3)o1)C(C)(C)CCC2(C)C (centres unmarked) [Compound 481]
2,34,Cc1cc2c(cc1Cc1ccc(C(=O)NCCc3ccc([N+](=O)[O-])cc3)o1)C(C)(C)CCC2(C)C [Compound 482]
3,10,Cc1cc2c(cc1Cc1ccc(C(=O)NCC3CCNCC3)o1)C(C)(C)CCC2(C)C [Compound 483]
4,-1,Cc1cc2c(cc1Cc1ccc(C(=O)NCc3ccc4c(c3)OCO4)o1)C(C)(C)CCC2(C)C [Compound 484]
5,-5,Cc1cc2c(cc1Cc1ccc(C(=O)NCCc3ccncc3)o1)C(C)(C)CCC2(C)C [Compound 485]
6,33,Cc1cc2c(cc1Cc1ccc(C(=O)NC3CCC(c4nccc(NCC5CCCO5)n4)C3)o1)C(C)(C)CCC2(C)C (centres unmarked) [Compound 486]
7,3,Cc1cc2c(cc1Cc1ccc(C(=O)NCCCCNc3nccc(NCC4CCCO4)n3)o1)C(C)(C)CCC2(C)C (centres unmarked) [Compound 487]
8,-3,Cc1cc2c(cc1Cc1ccc(C(=O)NCCN3CCCCC3)o1)C(C)(C)CCC2(C)C [Compound 488]
9,-1,COc1ccc(CCNC(=O)c2ccc(Cc3cc4c(cc3C)C(C)(C)CCC4(C)C)o2)cc1OC [Compound 489]
10,4,COc1cc(CNC(=O)c2ccc(Cc3cc4c(cc3C)C(C)(C)CCC4(C)C)o2)cc(OC)c1 [Compound 490]
11,9,Cc1cc2c(cc1Cc1ccc(C(=O)NCC3CCN(c4nccc(NCC5CCCO5)n4)CC3)o1)C(C)(C)CCC2(C)C (centres unmarked) [Compound 491]
12,-7,Cc1cc2c(cc1Cc1ccc(C(=O)NCC3CCCC(CNc4nccc(NCC5CCCO5)n4)C3)o1)C(C)(C)CCC2(C)C (centres unmarked) [Compound 492]
13,-6,COC(=O)CCCCCNC(=O)c1ccc(Cc2cc3c(cc2C)C(C)(C)CCC3(C)C)o1 [Compound 493]
14,-7,Cc1cc2c(cc1Cc1ccc(C(=O)NCCCN3CCCCC3C)o1)C(C)(C)CCC2(C)C (centres unmarked) [Compound 494]
15,4,COc1cccc(CCNC(=O)c2ccc(Cc3cc4c(cc3C)C(C)(C)CCC4(C)C)o2)c1 [Compound 495]
16,-6,Cc1cc2c(cc1Cc1ccc(C(=O)NCCCN(C)CCCN)o1)C(C)(C)CCC2(C)C [Compound 496]
17,2,Cc1cc2c(cc1Cc1ccc(C(=O)NCc3ccc(C(=O)O)cc3)o1)C(C)(C)CCC2(C)C [Compound 497]
18,58,CNCCCNC(=O)c1ccc(Cc2cc3c(cc2C)C(C)(C)CCC3(C)C)o1 [Compound 498]
19,1,Cc1cc2c(cc1Cc1ccc(C(=O)NCC3CN(Cc4ccccc4)CCO3)o1)C(C)(C)CCC2(C)C (centres unmarked) [Compound 499]
20,-4,Cc1cc2c(cc1Cc1ccc(C(=O)NCc3nc4ccccc4[nH]3)o1)C(C)(C)CCC2(C)C [Compound 500]
21,-3,Cc1cc2c(cc1Cc1ccc(C(=O)NCc3ccccn3)o1)C(C)(C)CCC2(C)C [Compound 501]
22,-2,COc1cc(CNC(=O)c2ccc(Cc3cc4c(cc3C)C(C)(C)CCC4(C)C)o2)cc(OC)c1OC [Compound 502]

row,remaining activity at 10 µM [%],Compound
1,-3,Cc1cc2c(cc1Cc1ccc(C(=O)NCCc3ccc(N)cc3)o1)C(C)(C)CCC2(C)C [Compound 503]
2,46,Cc1cc2c(cc1Cc1ccc(C(=O)NCCc3cccc(Oc4ccccc4)c3)o1)C(C)(C)CCC2(C)C [Compound 504]
3,7,Cc1cc2c(cc1Cc1ccc(C(=O)NCCCN3CCCCC3)o1)C(C)(C)CCC2(C)C [Compound 505]
4,3,COc1cc(CCNC(=O)c2ccc(Cc3cc4c(cc3C)C(C)(C)CCC4(C)C)o2)cc(OC)c1O [Compound 506]
5,-4,Cc1cc2c(cc1Cc1ccc(C(=O)NCCc3ccccn3)o1)C(C)(C)CCC2(C)C [Compound 507]
6,7,COc1ccc(OC)c(CCNC(=O)c2ccc(Cc3cc4c(cc3C)C(C)(C)CCC4(C)C)o2)c1 [Compound 508]
7,16,Cc1cc2c(cc1Cc1ccc(C(=O)NCCc3c[nH]c4ccc(Cl)cc34)o1)C(C)(C)CCC2(C)C [Compound 509]
8,23,Cc1cc2c(cc1Cc1ccc(C(=O)NCC(F)(F)F)o1)C(C)(C)CCC2(C)C [Compound 510]
9,47,Cc1cc2c(cc1Cc1ccc(C(=O)NCc3cccc(NC(=O)N(Cc4ccccc4)c4ccccc4)c3)o1)C(C)(C)CCC2(C)C [Compound 511]
10,51,Cc1cc2c(cc1Cc1ccc(C(=O)NCCc3ccccc3Oc3ccccc3)o1)C(C)(C)CCC2(C)C [Compound 512]
11,9,Cc1cc2c(cc1Cc1ccc(C(=O)NCCc3c[nH]cn3)o1)C(C)(C)CCC2(C)C [Compound 513]
12,2,Cc1cc2c(cc1Cc1ccc(C(=O)NCCNc3nccc(NCC4CCCO4)n3)o1)C(C)(C)CCC2(C)C (centres unmarked) [Compound 514]
13,11,Cc1cc2c(cc1Cc1ccc(C(=O)NCCN3CCCC3)o1)C(C)(C)CCC2(C)C [Compound 515]
14,21,Cc1cc2c(cc1Cc1ccc(C(=O)NCc3ccccc3C(F)(F)F)o1)C(C)(C)CCC2(C)C [Compound 516]
15,34,Cc1cc2c(cc1Cc1ccc(C(=O)Nc3nc(N(C)C)nc4nc[nH]c34)o1)C(C)(C)CCC2(C)C [Compound 517]
16,56,Cc1cc2c(cc1Cc1ccc(C(=O)NCc3cccc4c3OC3C=CC=CC43)o1)C(C)(C)CCC2(C)C (centres unmarked) [Compound 518]
17,0,Cc1cc2c(cc1Cc1ccc(C(=O)NCc3ccc(F)c(F)c3)o1)C(C)(C)CCC2(C)C [Compound 519]
18,-3,Cc1cc2c(cc1Cc1ccc(C(=O)NCCN3CCNC3=O)o1)C(C)(C)CCC2(C)C [Compound 520]
19,51,Cc1cc2c(cc1Cc1ccc(C(=O)NCc3ccc(S(N)(=O)=O)cc3)o1)C(C)(C)CCC2(C)C [Compound 521]
20,9,Cc1cc2c(cc1Cc1ccc(C(=O)NCC3CCN(C(N)N)CC3)o1)C(C)(C)CCC2(C)C [Compound 522]
21,-4,Cc1cc2c(cc1Cc1ccc(C(=O)NCCN3CCOCC3)o1)C(C)(C)CCC2(C)C [Compound 523]
